Results taken from patent publication US11332450B2, “Isoxazole as FXR receptor agonists” (Bar Pharmaceuticals Societa' A Responsabilita' Limitata, priority 2018, dated 2022).

Columns and labels:
SHP mRNA = SHP mRNA expression in HepG2 cells (RT-PCR); format: cell-based, human
Procedure: RNA isolation and RT-PCR. HepG2 cells were plated at the density of 1×10^6 cells/flask in T25 flask. […] Total RNA was isolated from HepG2 cells or liver tissue using the TRIzol reagent according to the manufacturer's specifications (Invitrogen). One microgram of purified RNA was treated with DNase-I and reverse transcribed with QuantiTect Reverse Transcription Kit (Qiagen). For Real Time PCR, 10 ng template was dissolved in 25 μL containing 200 nmol/L of each primer and 12.5 μL of 2×SYBR FAST Universal ready mix (Invitrogen). All reactions were performed in triplicate, and the thermal cycling conditions were as follows: 2 min at 95° C., followed by 40 cycles of 95° C. for 20 s and 60° C. for 30 s in StepOnePlus (Applied Biosystems). The relative mRNA expression was calculated in accord to the Ct method. Forward and reverse primer sequences were the following: human GAPDH: [NT] (SEQ ID: 1) and [NT] (SEQ ID: 2); human SHP: [NT] (SEQ ID: 3) and [NT] (SEQ ID: 4); mouse GAPDH, [NT] (SEQ ID: 5) and [NT] (SEQ ID: 6); mouse SHP [NT] (SEQ ID: 7) and [NT] (SEQ ID: 8); mouse FXR: [NT] (SEQ ID: 9) and [NT] (SEQ ID: 10); mouse BSEP: [NT] (SEQ ID: 11) and [NT] (SEQ ID: 12).

[1] = rats, oral administration; cited from earlier work
[2] = ascribed to the stilbene moiety; cited from earlier work
[3] = Microsomal stability in mouse liver microsomes; format: in vitro ADME; settings: male CD-1 mouse liver microsomes, 1 μM compound, 37° C.
Procedure: Male mouse (CD-1) liver microsomes (Sigma-Aldrich) were used. All incubations were performed in duplicate in a shaking water bath at 37° C. […] Aliquots were removed at 0, 5, 10, 20, 30, and 40 min after microsome addition and the reaction was stopped by adding 200 μL of ice-cold acetonitrile. After 2 h, the samples were centrifuged for 10 min at 10000 rpm, and the supernatants were transferred in matrix tubes for LC-MS/MS analysis. Propranolol, known as a high hepatic clearance drug in rodents, was used as a quality-control compound for the microsomal incubations. The slope of the linear regression of the curve obtained reporting the natural logarithm of compound area versus incubation time (−k) was used in the conversion to in vitro t1/2 values by t1/2=−ln(2)/k. In vitro intrinsic clearance (CLint expressed as μL/min/mg) was calculated according to the following formula: Clint=volume of reaction (μL)/t1/2 (min)/protein of liver microsomes (mg).

liver BSEP mRNA = test: Liver BSEP mRNA expression in mice after administration of compound; format: in vivo, mouse; settings: administered per os, 10 mg/kg daily for 3 days
Procedure: (§1) Total RNA was isolated from HepG2 cells or liver tissue using the TRIzol reagent according to the manufacturer's specifications (Invitrogen). One microgram of purified RNA was treated with DNase-I and reverse transcribed with QuantiTect Reverse Transcription Kit (Qiagen). For Real Time PCR, 10 ng template was dissolved in 25 μL containing 200 nmol/L of each primer and 12.5 μL of 2×SYBR FAST Universal ready mix (Invitrogen). All reactions were performed in triplicate, and the thermal cycling conditions were as follows: 2 min at 95° C., followed by 40 cycles of 95° C. for 20 s and 60° C. for 30 s in StepOnePlus (Applied Biosystems). The relative mRNA expression was calculated in accord to the Ct method. Forward and reverse primer sequences were the following: human GAPDH: [NT] (SEQ ID: 1) and [NT] (SEQ ID: 2); human SHP: [NT] (SEQ ID: 3) and [NT] (SEQ ID: 4); mouse GAPDH, [NT] (SEQ ID: 5) and [NT] (SEQ ID: 6); mouse SHP [NT] (SEQ ID: 7) and [NT] (SEQ ID: 8); mouse FXR: [NT] (SEQ ID: 9) and [NT] (SEQ ID: 10); mouse BSEP: [NT] (SEQ ID: 11) and [NT] (SEQ ID: 12). C57BL/6N male mice were from The Jackson's Laboratory. […] The general health of the animals was monitored daily by the Veterinarian in the animal facility. […]

liver SHP mRNA = test: Liver SHP mRNA expression in mice after administration of compound; format: in vivo, mouse; settings: administered per os, 10 mg/kg daily for 3 days
Procedure: as §1

Row | SMILES | SHP mRNA expression induction (SHP mRNA; 5 μM concentration, 18 h) [times] | SHP mRNA expression induction (SHP mRNA; reference compound at 10 μM concentration) [times] | intestinal absorption [1] [%] | terminal half-life [1] | UV light stability [2] | Clint [3] [µL/min/mg] | t1/2 [3] [min] | liver BSEP mRNA expression (liver BSEP mRNA) | liver SHP mRNA expression (liver SHP mRNA)
1 | CC(C)c1onc(-c2c(Cl)cccc2Cl)c1COc1ccc(COc2cccc(C(=O)O)c2)cc1 [BAR2123, 3-((4-((3-(2,6-dichlorophenyl)-5-isopropylisoxazol-4-yl)methoxy)benzyl)oxy)benzoic Acid] | 6.2 |  |  |  |  |  |  |  | 
2 | CC(C)c1onc(-c2c(Cl)cccc2Cl)c1COc1ccc(/C=C/c2cccc(C(=O)O)c2)c(Cl)c1 [GW4064] |  | 4.2 | < 10 | short | UV light instability | 56 | 41 |  | 
3 | CC(C)c1onc(-c2c(Cl)cccc2Cl)c1COc1ccc(COc2ccc(C(=O)O)cc2)cc1 [BAR2109, 4-((4-((3-(2,6-dichlorophenyl)-5-isopropylisoxazol-4-yl)methoxy)benzyl)oxy)benzoic Acid] | 6.8 |  |  |  |  |  |  | inducing | inducing
